Source: patent US8906944B2, “Compounds as tyrosine kinase modulators” (Allergan, Inc., priority 2009, dated 2014)
pIC50: −log10 of the molar value.

Key:
Type in all cases: biochemical
[1] = target: VEGFR1 (Homo sapiens, UniProt P17948); test: VEGFR1 enzyme assay; settings: Table IV, amide or urea linker
[2] = target: T1, human VEGF receptor (VEGFR-2) (Homo sapiens, UniProt P35968); test: VEGFR2 kinase assay; settings: His-VEGFR-2 cytoplasmic domain, 3.6 μM ATP; Table IV, amide or urea linker; read-out: VEGFR2 Enzyme IC50
T1 construct: The cytoplasmic domain of the human VEGF receptor (VEGFR-2) was expressed; His; made in house; host or cells: insect cells (baculovirus)
Description: The cytoplasmic domain of the human VEGF receptor (VEGFR-2) was expressed as a Histidine-tagged fusion protein following infection of insect cells using an H is engineered baculovirus. […] Kinase assays were performed in 96 well microtiter plates that were coated overnight with 30 µg of poly-Glu-Tyr (4:1) in 10 mM Phosphate Buffered Saline (PBS), pH 7.2-7.4. The plates were incubated with 1% BSA and then washed four times with PBS prior to starting the reaction. Reactions were carried out in 120 µL reaction volumes containing 3.6 µM ATP in kinase buffer (50 mM Hepes buffer pH 7.4, 20 mM MgCl2, 0.1 mM MnCl2 and 0.2 mM Na3 VO4). […] Reactions were initiated by the addition 0.5 ng of purified protein. Following a ten minute incubation at 25 degree. […] IC50 values for compound inhibition were calculated directly from graphs of optical density (arbitrary units) versus compound concentration following subtraction of blank values.

[3] = target: PDGFβ (Homo sapiens, UniProt P09619); test: PDGFβ enzyme assay; settings: Table IV, amide or urea linker
PDGFβ, sequence (P09619 33-1106): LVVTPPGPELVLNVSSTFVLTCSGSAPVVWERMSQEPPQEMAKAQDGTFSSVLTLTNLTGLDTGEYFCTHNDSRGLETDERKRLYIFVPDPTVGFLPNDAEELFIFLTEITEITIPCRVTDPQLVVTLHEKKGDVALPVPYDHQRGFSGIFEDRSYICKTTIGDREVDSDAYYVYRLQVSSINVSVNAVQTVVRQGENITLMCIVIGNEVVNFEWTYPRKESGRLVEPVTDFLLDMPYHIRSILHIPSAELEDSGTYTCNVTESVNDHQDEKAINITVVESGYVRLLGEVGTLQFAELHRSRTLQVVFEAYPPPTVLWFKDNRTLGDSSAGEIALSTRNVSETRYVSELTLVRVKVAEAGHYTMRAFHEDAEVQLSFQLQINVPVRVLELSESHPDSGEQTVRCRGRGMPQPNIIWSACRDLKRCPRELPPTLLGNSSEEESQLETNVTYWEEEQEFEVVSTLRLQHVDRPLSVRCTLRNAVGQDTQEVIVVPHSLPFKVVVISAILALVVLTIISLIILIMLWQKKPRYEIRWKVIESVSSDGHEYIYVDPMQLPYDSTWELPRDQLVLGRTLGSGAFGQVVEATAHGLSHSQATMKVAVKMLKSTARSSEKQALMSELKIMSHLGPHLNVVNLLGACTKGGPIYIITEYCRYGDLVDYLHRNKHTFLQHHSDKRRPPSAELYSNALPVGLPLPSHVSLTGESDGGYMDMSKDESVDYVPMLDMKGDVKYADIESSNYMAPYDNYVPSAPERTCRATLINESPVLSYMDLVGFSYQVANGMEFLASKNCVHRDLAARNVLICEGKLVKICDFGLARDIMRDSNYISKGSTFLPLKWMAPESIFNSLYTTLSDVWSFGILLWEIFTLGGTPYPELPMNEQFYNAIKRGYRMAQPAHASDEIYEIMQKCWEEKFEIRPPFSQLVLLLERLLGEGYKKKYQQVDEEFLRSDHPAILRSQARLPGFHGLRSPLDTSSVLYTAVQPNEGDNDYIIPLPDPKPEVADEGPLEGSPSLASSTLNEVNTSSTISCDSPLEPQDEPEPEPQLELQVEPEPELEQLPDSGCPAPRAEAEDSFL

T1 sequence (P35968 786-1356 limits assumed): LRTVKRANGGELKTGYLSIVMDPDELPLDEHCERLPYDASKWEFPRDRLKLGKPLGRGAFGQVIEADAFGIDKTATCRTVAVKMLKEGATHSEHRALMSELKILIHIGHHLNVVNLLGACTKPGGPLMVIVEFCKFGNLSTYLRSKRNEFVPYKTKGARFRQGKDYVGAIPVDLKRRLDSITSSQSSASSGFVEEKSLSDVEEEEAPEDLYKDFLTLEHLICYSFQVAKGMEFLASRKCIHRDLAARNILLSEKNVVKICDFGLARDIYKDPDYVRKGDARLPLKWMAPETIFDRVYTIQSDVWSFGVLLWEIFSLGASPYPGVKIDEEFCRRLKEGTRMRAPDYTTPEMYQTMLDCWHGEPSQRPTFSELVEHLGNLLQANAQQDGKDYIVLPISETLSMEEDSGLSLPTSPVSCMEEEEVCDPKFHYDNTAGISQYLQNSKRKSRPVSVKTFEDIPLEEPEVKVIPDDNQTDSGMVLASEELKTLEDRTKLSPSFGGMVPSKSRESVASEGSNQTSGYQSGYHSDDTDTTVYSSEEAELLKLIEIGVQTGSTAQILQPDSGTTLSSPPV
VEGFR1, sequence (P17948 27-1338, species assumed): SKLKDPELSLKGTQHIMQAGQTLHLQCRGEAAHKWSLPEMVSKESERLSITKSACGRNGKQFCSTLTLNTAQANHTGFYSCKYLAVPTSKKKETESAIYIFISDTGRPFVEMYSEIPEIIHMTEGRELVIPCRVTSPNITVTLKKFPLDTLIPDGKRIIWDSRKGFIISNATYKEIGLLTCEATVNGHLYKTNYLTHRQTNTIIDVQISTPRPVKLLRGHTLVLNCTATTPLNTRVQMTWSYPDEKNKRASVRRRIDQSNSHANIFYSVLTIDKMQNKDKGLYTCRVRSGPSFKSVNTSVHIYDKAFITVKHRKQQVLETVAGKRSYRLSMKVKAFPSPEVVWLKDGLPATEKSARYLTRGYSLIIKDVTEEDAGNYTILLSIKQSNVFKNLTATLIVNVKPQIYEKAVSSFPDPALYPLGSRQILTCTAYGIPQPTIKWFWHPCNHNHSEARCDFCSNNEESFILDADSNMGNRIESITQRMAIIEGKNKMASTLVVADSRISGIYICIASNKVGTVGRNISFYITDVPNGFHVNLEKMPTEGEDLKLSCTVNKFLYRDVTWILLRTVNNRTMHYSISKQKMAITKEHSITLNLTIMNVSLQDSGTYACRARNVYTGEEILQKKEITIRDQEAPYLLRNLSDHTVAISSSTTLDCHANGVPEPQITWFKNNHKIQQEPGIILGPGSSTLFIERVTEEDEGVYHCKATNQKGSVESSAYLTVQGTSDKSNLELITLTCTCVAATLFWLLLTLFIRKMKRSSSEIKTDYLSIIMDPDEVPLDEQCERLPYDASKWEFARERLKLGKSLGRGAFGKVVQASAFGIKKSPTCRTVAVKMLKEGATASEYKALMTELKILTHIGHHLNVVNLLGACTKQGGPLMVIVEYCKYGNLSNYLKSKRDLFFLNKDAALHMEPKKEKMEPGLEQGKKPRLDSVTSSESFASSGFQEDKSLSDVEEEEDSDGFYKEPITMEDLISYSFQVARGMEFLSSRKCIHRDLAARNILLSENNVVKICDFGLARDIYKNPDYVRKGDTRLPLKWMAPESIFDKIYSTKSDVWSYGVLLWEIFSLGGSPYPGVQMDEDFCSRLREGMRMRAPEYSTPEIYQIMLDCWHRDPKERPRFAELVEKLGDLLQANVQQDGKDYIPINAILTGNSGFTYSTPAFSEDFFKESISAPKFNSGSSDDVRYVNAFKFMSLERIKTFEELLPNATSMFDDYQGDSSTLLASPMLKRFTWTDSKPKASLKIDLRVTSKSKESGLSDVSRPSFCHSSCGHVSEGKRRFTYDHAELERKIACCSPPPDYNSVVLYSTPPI

Row | SMILES | pIC50 [1] | pIC50 [2] | pIC50 [3]
1 | Cc1ccc(F)c(NC(=O)c2ccc(F)c(Oc3ccnc(-c4cc(C(=O)N[C@@H](CCC(=O)O)C(=O)O)c[nH]4)c3)c2)c1 (stereo in doubt) [Example 248, 2-[({5-[4-(2-fluoro-5-{[(2-fluoro-5-methylphenyl)amino]carbonyl}phenoxy)pyridin-2-yl]-1H-pyrrol-3-yl}carbonyl)amino]pentanedioic acid] | 7.55 | 7.25 | 6.80
2 | Cc1ccc(F)c(NC(=O)Nc2ccc(Oc3ccnc(-c4cc(C(=O)NCCCc5nn[nH]n5)c[nH]4)c3)cc2)c1 [Example 149, 5-{4-[4-({[(2-fluoro-5-methylphenyl)amino]carbonyl}amino)phenoxy]pyridin-2-yl}-N-[3-(2H-tetrazol-5-yl)propyl]-1H-pyrrole-3-carboxamide] | 8.22 | 8.40 | 7.89
3 | Cc1ccc(F)c(NC(=O)Nc2ccc(Oc3ccnc(-c4cc(C(=O)NCCc5nn[nH]n5)c[nH]4)c3)cc2)c1 [Example 150, 5-{4-[4-({[(2-fluoro-5-methylphenyl)amino]carbonyl}amino)phenoxy]pyridin-2-yl}-N-[2-(2H-tetrazol-5-yl)ethyl]-1H-pyrrole-3-carboxamide] | 8.15 | 8.30 | 7.80
4 | Cc1ccc(F)c(NC(=O)Nc2ccc(Oc3ccnc(-c4cc(C(=O)NCCCN5CCCC(CO)C5)c[nH]4)c3)cc2)c1 (stereo not drawn) [Example 160, 5-{4-[4-({[(2-fluoro-5-methylphenyl)amino]carbonyl}amino)phenoxy]pyridin-2-yl}-N-{3-[3-(hydroxymethyl)piperidin-1-yl]propyl}-1H-pyrrole-3-carboxamide] | 8.15 | 8.05 | 7.72
5 | Cc1ccc(F)c(NC(=O)Nc2ccc(Oc3ccnc(-c4cc(C(=O)NCCCCC(=O)O)c[nH]4)c3)cc2)c1 [Example 166, 5-{[(5-{4-[4-({[(2-fluoro-5-methylphenyl)amino]carbonyl}amino)phenoxy]pyridin-2-yl}-1H-pyrrol-3-yl)carbonyl]amino}pentanoic acid] | 8.22 | 8.30 | 7.96
6 | COC(=O)CNCCCNC(=O)c1c[nH]c(-c2cc(Oc3cc(C(=O)Nc4cc(C)ccc4F)ccc3F)ccn2)c1 [Example 180, methyl ({3-[({5-[4-(2-fluoro-5-{[(2-fluoro-5-methylphenyl)amino]carbonyl}phenoxy)pyridin-2-yl]-1H-pyrrol-3-yl}carbonyl)amino]propyl}amino)acetate] | 7.49 | 7.85 | 7.28
7 | COC(=O)CNCCNC(=O)c1c[nH]c(-c2cc(Oc3cc(C(=O)Nc4cc(C)ccc4F)ccc3F)ccn2)c1 [Example 181, methyl ({2-[({5-[4-(2-fluoro-5-{[(2-fluoro-5-methylphenyl)amino]carbonyl}phenoxy)pyridin-2-yl]-1H-pyrrol-3-yl}carbonyl)amino]ethyl}amino)acetate] | 7.19 | 7.66 | 6.88
8 | Cc1ccc(F)c(NC(=O)c2ccc(F)c(Oc3ccnc(-c4cc(C(=O)NCCCN5CCC(O)CC5)c[nH]4)c3)c2)c1 [Example 184, 5-[4-(2-fluoro-5-{[(2-fluoro-5-methylphenyl)amino]carbonyl}phenoxy)pyridin-2-yl]-N-[3-(4-hydroxypiperidin-1-yl)propyl]-1H-pyrrole-3-carboxamide] | 7.29 | 7.72 | 7.31
9 | Cc1ccc(F)c(NC(=O)c2ccc(F)c(Oc3ccnc(-c4cc(C(=O)NCCCN5CCCC5)c[nH]4)c3)c2)c1 [Example 187, 5-[4-(2-fluoro-5-{[(2-fluoro-5-methylphenyl)amino]carbonyl}phenoxy)pyridin-2-yl]-N-(3-pyrrolidin-1-ylpropyl)-1H-pyrrole-3-carboxamide] | 7.57 | 7.82 | 7.01
10 | Cc1ccc(F)c(NC(=O)Nc2ccc(Oc3ccnc(-c4cc(C(=O)NCCCN(C)CC(O)CO)c[nH]4)c3)cc2F)c1 (stereo not drawn) [Example 195, N-{3-[(2,3-dihydroxypropyl)(methyl)amino]propyl}-5-{4-[3-fluoro-4-({[(2-fluoro-5-methylphenyl)amino]carbonyl}amino)phenoxy]pyridin-2-yl}-1H-pyrrole-3-carboxamide] | 8.05 | 8.15 | 7.72
11 | COC(=O)CNCCCNC(=O)c1c[nH]c(-c2cc(Oc3ccc(NC(=O)Nc4cc(C)ccc4F)c(F)c3)ccn2)c1 [Example 196, methyl [(3-{[(5-{4-[3-fluoro-4-({[(2-fluoro-5-methylphenyl)amino]carbonyl}amino)phenoxy]pyridin-2-yl}-1H-pyrrol-3-yl)carbonyl]amino}propyl)amino]acetate] | 8.00 | 8.10 | 7.72
12 | Cc1ccc(F)c(NC(=O)Nc2ccc(Oc3ccnc(-c4cc(C(=O)NCCCN5CCCC(CO)C5)c[nH]4)c3)cc2F)c1 (stereo not drawn) [Example 205, 5-{4-[3-fluoro-4-({[(2-fluoro-5-methylphenyl)amino]carbonyl}amino)phenoxy]pyridin-2-yl}-N-{3-[3-(hydroxymethyl)piperidin-1-yl]propyl}-1H-pyrrole-3-carboxamide] | 8.05 | 8.10 | 7.82
13 | Cc1ccc(F)c(NC(=O)Nc2ccc(Oc3ccnc(-c4cc(C(=O)NCCCN5CCOC(CO)C5)c[nH]4)c3)cc2F)c1 (stereo not drawn) [Example 206, 5-{4-[3-fluoro-4-({[(2-fluoro-5-methylphenyl)amino]carbonyl}amino)phenoxy]pyridin-2-yl}-N-{3-[2-(hydroxymethyl)morpholin-4-yl]propyl}-1H-pyrrole-3-carboxamide] | 7.92 | 8.05 | 7.77
14 | Cc1ccc(F)c(NC(=O)Nc2ccc(Oc3ccnc(-c4cc(C(=O)NCCCN5CCC(O)CC5)c[nH]4)c3)cc2F)c1 [Example 207, 5-{4-[3-fluoro-4-({[(2-fluoro-5-methylphenyl)amino]carbonyl}amino)phenoxy]pyridin-2-yl}-N-[3-(4-hydroxypiperidin-1-yl)propyl]-1H-pyrrole-3-carboxamide] | 8.00 | 8.15 | 7.77
15 | Cc1ccc(F)c(NC(=O)Nc2ccc(Oc3ccnc(-c4cc(C(=O)NCC(=O)O)c[nH]4)c3)cc2F)c1 [Example 210, {[(5-{4-[3-fluoro-4-({[(2-fluoro-5-methylphenyl)amino]carbonyl}amino)phenoxy]pyridin-2-yl}-1H-pyrrol-3-yl)carbonyl]amino}acetic acid] | 8.10 | 7.92 | 7.89
16 | Cc1ccc(F)c(NC(=O)Nc2ccc(Oc3ccnc(-c4cc(C(=O)NCCCN(CC(=O)O)CC(=O)O)c[nH]4)c3)cc2)c1 [Example 214, 2,2′-[(3-{[(5-{4-[4-({[(2-fluoro-5-methylphenyl)amino]carbonyl}amino)phenoxy]pyridin-2-yl}-1H-pyrrol-3-yl)carbonyl]amino}propyl)imino]diacetic acid] | 8.10 | 7.66 | 7.64
17 | Cc1ccc(F)c(NC(=O)Nc2ccc(Oc3ccnc(-c4cc(C(=O)N5CCN(CC(=O)O)CC5)c[nH]4)c3)cc2F)c1 [Example 218, {4-[(5-{4-[3-fluoro-4-({[(2-fluoro-5-methylphenyl)amino]carbonyl}amino)phenoxy]pyridin-2-yl}-1H-pyrrol-3-yl)carbonyl]piperazin-1-yl}acetic acid] | 8.05 | 8.30 | 7.80
